In patent US8026219B2, “Antimicrobial linear peptides” (Universitat de Girona, priority 2006, dated 2011):
Residues, ends and D or L forms follow the SMILES beside them. No end group written: not given here. *: point of attachment. Bz = O=C(c1ccccc1)*

Assays:
[1] = system: Erwinia amylovora PMV6076; assay: Minimum inhibitory concentration (MIC), microbial growth by optical density; assay type: cell-based; conditions: 48 h incubation at 25° C., TSB medium
Procedure: (§1) Each experiment was performed twice.

[2] = system: Pseudomonas syringae EPS94; assay: as above; assay type: cell-based; conditions: 48 h incubation at 25° C., TSB medium
Procedure: as §1

[3] = system: erythrocytes from fresh human blood; conditions: 5% erythrocytes, 1 h at 37° C., relative to 200 μM melittin; for % Haemolysis 50 μM: 50 μM peptide; for % Haemolysis 150 μM: 150 μM peptide; for % Haemolysis 250 μM: 250 μM peptide
Procedure: A description of the methodology used to determine the haemolytic activity is found in Oren et al, Biochemistry, 2000, 39, 6103-6114, and in Raguse et al., J. Am. Chem. Soc., 2002, 124, 12774-12785.
The haemolytic activity of the peptides of the invention was evaluated by determining the release of haemoglobin which is produced on placing in contact a solution of the peptides with a suspension of erythrocytes 5% by volume, from fresh human blood.
The blood was collected aseptically using a Vactainer® K2E system (Belliver, Great Britain) with EDTA and it was stored at 4° C. for a period lower than 2 hours.
The blood was centrifuged at 6000 g for 5 minutes to separate the erythrocytes. There were washed three times with TRIS buffer (10 mM TRIS, 150 mM NaCl, pH 7.2) and they were resuspended in TRIS buffer until obtaining a suspension which contained 10% by volume of erythrocytes.
The peptides were solubilized in TRIS buffer until a final concentration of 100, 300 and 500 μM
The replicas were used for each peptide and concentration.
65 μl of 10% erythrocyte suspension was mixed with 65 μl of the peptide solution in each well of a 96-well plate (Micro-Amp®, Applied Biosystems, USA) (5% by volume of erythrocytes) and the mixture was incubated for 1 h at 37° C. under stirring. In this way, the erythrocyte suspensions were subjected to peptide concentrations of 50, 150 and 250 μM.
Next, the plates were centrifuged at 3500 g during 10 minutes and aliquots were transferred of 80 μl of supernatant to microplates with 100 wells (Bioscreen), which were diluted with 80 μl of milli-Q water.
The degree of haemolysis was determined from the absorbance at 540 nm with a Bioscreen plate reader.
The complete positive haemolysis control was determined in a TRIS buffer solution which contained 200 μM melittin (Sigma-Aldrich, Spain)
The percentage of haemolysis (H) was determined using the following equation: H=100×[Op−Ob)/(Om−Ob)]
Where OP as the optical density measured for a determined peptide concentration, Ob was the optical density of the buffer solution, and Om was the optical density for the positive control with melittin.

Proteinase K [4] = target: T1, Proteinase K (Parengyodontium album, UniProt P06873); assay: in vitro; conditions: Proteinase K (1 μg/ml), pH 7.6
T1 sequence (P06873 106-384): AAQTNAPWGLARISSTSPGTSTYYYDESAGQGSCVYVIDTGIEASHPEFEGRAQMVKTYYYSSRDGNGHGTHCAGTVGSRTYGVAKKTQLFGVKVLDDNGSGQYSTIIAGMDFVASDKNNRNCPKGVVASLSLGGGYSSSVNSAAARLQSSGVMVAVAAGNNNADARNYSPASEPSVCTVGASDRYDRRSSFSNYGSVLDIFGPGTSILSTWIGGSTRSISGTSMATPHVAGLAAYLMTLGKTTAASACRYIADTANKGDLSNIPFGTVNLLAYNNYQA
Procedure: (§2) The degradation is expressed as the percentage of peptide degraded after a determined time interval calculated from the decrease in the area of the peak of the native peptide by HPLC.
(§3) The stability of the peptides of the invention to degradation by proteases is determined by a peptide digestion test by Proteinase K (Sigma-Aldrich Corporation, Madrid, Spain).
(§4) A solution of 50 μg/ml of the peptide and 1 μg/ml of Proteinase K in 100 mM TRIS buffer at pH 7.6 was used, at ambient temperature.
(§5) The progress of the peptide excision was determined chromatographically at times between 5 and 45 minutes. To do this a reverse phase C18 column was used (Kromasil, 4.6×40 mm; 3.5 μm particle size), and linear gradients from 0.98:0.02 to 0:1 during 7 min performing the detection by absorbance in ultraviolet light at 220 nm.

[5] = system: Xanthomonas vesicatori 2133-2; assay: Minimum inhibitory concentration (MIC), microbial growth by optical density; conditions: 48 h incubation at 25° C., TSB medium
Procedure: All the bacteria were stored at a temperature of −80° C. in Luria-Bertani (LB) medium supplemented with 20% glycerine in volume/volume.
In all cases they were resuspended in sterile water to obtain a suspension adjusted to an absorbance of 0.2 to 60 nm, which approximately corresponds to 10^8 colony forming units.
To determine the minimum inhibitory concentration (MIC), the peptides were solubilized in milli-Q sterile water until a final concentration of 1000 μM and they were filtered through a 0.22 μm pore size filter.
Dilutions of the peptides of the invention were made to obtained solutions at the concentrations of 750, 500, 250, 200, 150, 125, 100, 75, 50 and 25 μM.
20 μl of each dilution were mixed with 20 μl of the suspension of the corresponding bacterial indicator, and 160 μl of the TSB (Trypticase Soy Broth) liquid medium until a total volume of 200 μl in each well of a microplate.
Two replicas were carried out for each strain, concentration and peptide under study.
The positive controls contained water instead of peptide, and the negative controls contained the peptides without the bacterial suspension.
The microbial growth was determined automatically by optical density at 600 nm using the Microbiology Analyser Bioscreen C (Labsystems)
The microplates were incubated at 25° C. for 48 hours with stirring for 20 seconds before measuring the absorbance every hour. Each experiment was performed twice.

Proteinase K [6] = target: T1, Proteinase K; conditions: 45 minutes
Procedure: as §2, §3, §4, §5

[7] = listed as peptide described by Cavallarin et al

Compound	range of concentrations including the MIC, E. amylovora [1] [µM]	range of concentrations including the MIC, P. syringae [2] [µM]	% Haemolysis 50 μM [3] [%]	% Haemolysis 150 μM [3] [%]	% Haemolysis 250 μM [3] [%]	metabolised at 0.75 h, 50 μg/ml (Proteinase K [4]) [%]	range of concentrations including the MIC, X. vesicatoria [5] [µM]	stability to degradation by proteases relative to the peptide of the Comparative example (Proteinase K [6])	range of concentrations including the MIC, E. amylovora [1, 7]	range of concentrations including the MIC, P. syringae [2, 7]	range of concentrations including the MIC, X. vesicatoria [5, 7]
CC[C@H](C)[C@H](NC(=O)[C@H](CCCCN)NC(=O)[C@H](CCCCN)NC(=O)[C@H](Cc1ccccc1)NC(=O)[C@H](CC(C)C)NC(=O)[C@H](CCCCN)NC(=O)[C@H](Cc1c[nH]c2ccccc12)NC(=O)c1ccccc1)C(=O)N[C@@H](CC(C)C)C(=O)N[C@@H](CCCCN)C(=O)N[C@H](C(=O)N[C@@H](CC(C)C)C(N)=O)C(C)C [BP010] (Bz-WKLFKKILKVL-NH2)	>7.5	>7.5	77	77	76	100	<2.5				
CC[C@H](C)[C@H](NC(=O)[C@H](CCCCN)NC(=O)[C@H](CCCCN)NC(=O)[C@H](Cc1ccccc1)NC(=O)[C@H](CC(C)C)NC(=O)[C@H](CCCCN)NC(=O)[C@@H](N)CCCCN)C(=O)N[C@@H](CC(C)C)C(=O)N[C@@H](CCCCN)C(=O)N[C@H](C(=O)N[C@@H](CC(C)C)C(N)=O)C(C)C [BP015]	5 to 7.5	2.5 to 5	0	16	45	100	>7.5				
CC[C@H](C)[C@H](NC(=O)[C@H](CCCCN)NC(=O)[C@H](CCCCN)NC(=O)[C@H](Cc1ccccc1)NC(=O)[C@H](CC(C)C)NC(=O)[C@H](CCCCN)NC(=O)[C@@H](N)Cc1c[nH]c2ccccc12)C(=O)N[C@@H](CC(C)C)C(=O)N[C@@H](CCCCN)C(=O)N[C@@H](Cc1ccc(O)cc1)C(=O)N[C@@H](CC(C)C)C(N)=O [BP020]	2.5 to 5	2.5 to 5	78	77	72	85	2.5 to 5				
CC[C@H](C)[C@H](NC(=O)[C@H](CCCCN)NC(=O)[C@H](CCCCN)NC(=O)[C@H](Cc1ccccc1)NC(=O)[C@H](CC(C)C)NC(=O)[C@H](CCCCN)NC(=O)[C@@H](N)CCCCN)C(=O)N[C@@H](CC(C)C)C(=O)N[C@@H](CCCCN)C(=O)N[C@@H](Cc1ccccc1)C(=O)N[C@@H](CC(C)C)C(N)=O [BP076]	2.5 to 5	2.5 to 5	3	34	65	49	2.5 to 5	two times more stable			
CC[C@H](C)[C@H](NC(=O)[C@H](CCCCN)NC(=O)[C@H](CCCCN)NC(=O)[C@H](Cc1ccccc1)NC(=O)[C@H](CC(C)C)NC(=O)[C@H](CCCCN)NC(=O)[C@H](CCCCN)NC(C)=O)C(=O)N[C@@H](CC(C)C)C(=O)N[C@@H](CCCCN)C(=O)N[C@@H](Cc1ccccc1)C(=O)N[C@@H](CC(C)C)C(N)=O [BP077]	5 to 7.5	5 to 7.5	6	40	81	84	<2.5				
CC[C@H](C)[C@H](NC(=O)[C@H](CCCCN)NC(=O)[C@H](CCCCN)NC(=O)[C@H](Cc1ccccc1)NC(=O)[C@H](CC(C)C)NC(=O)[C@H](CCCCN)NC(=O)[C@@H](N)CCCCN)C(=O)N[C@@H](CC(C)C)C(=O)N[C@@H](CCCCN)C(=O)N[C@@H](Cc1ccc(O)cc1)C(=O)N[C@@H](CC(C)C)C(N)=O [BP100]			3	22	43	60	5 to 7.5				
CC[C@H](C)[C@H](NC(=O)[C@H](CCCCN)NC(=O)[C@H](CCCCN)NC(=O)[C@H](Cc1ccccc1)NC(=O)[C@H](CC(C)C)NC(=O)[C@H](CCCCN)NC(=O)[C@H](CCCCN)NS(=O)(=O)c1ccc(C)cc1)C(=O)N[C@@H](CC(C)C)C(=O)N[C@@H](CCCCN)C(=O)N[C@@H](CCCCN)C(=O)N[C@@H](CC(C)C)C(N)=O [BP125]	>7.5	2.5 to 5	2	8	23	67	2.5 to 5				
CC[C@H](C)[C@H](NC(=O)[C@H](CCCCN)NC(=O)[C@H](CCCCN)NC(=O)[C@H](Cc1ccccc1)NC(=O)[C@H](CC(C)C)NC(=O)[C@H](CCCCN)NC(=O)[C@H](CCCCN)NC(=O)c1ccccc1)C(=O)N[C@@H](CC(C)C)C(=O)N[C@@H](CCCCN)C(=O)N[C@@H](CCCCN)C(=O)N[C@@H](CC(C)C)C(N)=O [BP126]	5 to 7.5	2.5 to 5	2	14	24	53	2.5 to 5	two times more stable			
LKLFKKILKVL-NH2 [BP033]	5 to 7.5	5 to 7.5	4	38	68	100	>7.5				
WKLFKKILKFL-NH2 [BP019]	5 to 7.5	5 to 7.5	57	94	100	87	2.5 to 5				
WKLFKKILKVL-NH2 [Comparative example, reference compound]						100			over 7.5 μM	over 7.5 μM	over 7.5 μM
